# Source: ChEMBL document CHEMBL4373715, “Discovery and Biological Evaluations of Halogenated 2,4-Diphenyl Indeno[1,2-b]pyridinol Derivatives as Potent Topoisomerase IIα-Targeted Chemotherapeutic Agents for Breast Cancer” (J Med Chem, 2019)
# Calls of active or inactive are those of the source. The rule behind the calls is not given here.
# How the values were obtained:
# [1] = Protein binding in mouse plasma assessed as unbound fraction at 1 mM measured immediately by LC-MS/MS analysis; format: ADME, cell-free
# T47D = assay: Antiproliferative activity against human T47D cells measured after 72 hrs by EZ-Cytox assay; format: functional, cell-based
# [2] = Stability in human plasma assessed as parent compound remaining at 1 mM measured immediately by LC-MS/MS analysis; format: ADME, cell-free; settings: read-out: Stability
# [3] = biological target: T1, DNA topoisomerase 1 (Homo sapiens) (UniProt P11387); assay: Inhibition of recombinant human topoisomerase 1-mediated relaxation of supercoiled pBR322 DNA at 100 uM measured after 30 mins by ethidium bromide staining based agarose gel electrophoresis relative to control
# T1 sequence (whole entry): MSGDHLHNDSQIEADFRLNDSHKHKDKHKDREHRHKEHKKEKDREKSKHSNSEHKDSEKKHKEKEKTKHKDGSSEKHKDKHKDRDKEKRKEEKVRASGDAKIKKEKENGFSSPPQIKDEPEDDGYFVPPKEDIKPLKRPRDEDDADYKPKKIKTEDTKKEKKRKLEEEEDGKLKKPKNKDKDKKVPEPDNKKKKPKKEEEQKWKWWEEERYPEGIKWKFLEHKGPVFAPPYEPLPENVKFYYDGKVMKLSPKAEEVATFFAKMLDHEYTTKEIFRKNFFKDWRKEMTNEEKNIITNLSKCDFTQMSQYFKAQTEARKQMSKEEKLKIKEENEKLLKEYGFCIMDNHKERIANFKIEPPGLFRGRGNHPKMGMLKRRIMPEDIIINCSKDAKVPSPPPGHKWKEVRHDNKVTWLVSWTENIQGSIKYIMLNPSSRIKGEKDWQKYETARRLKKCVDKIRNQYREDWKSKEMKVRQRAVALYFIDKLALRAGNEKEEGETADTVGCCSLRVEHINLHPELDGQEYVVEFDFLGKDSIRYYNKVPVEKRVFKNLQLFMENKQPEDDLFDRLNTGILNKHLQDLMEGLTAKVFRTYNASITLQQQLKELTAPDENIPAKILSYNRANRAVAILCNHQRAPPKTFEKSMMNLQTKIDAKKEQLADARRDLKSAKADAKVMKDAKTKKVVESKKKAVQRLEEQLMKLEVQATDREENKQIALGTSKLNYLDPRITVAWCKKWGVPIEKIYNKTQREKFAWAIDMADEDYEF
# MDA-MB-436 = assay: Antiproliferative activity against human MDA-MB-436 cells measured after 72 hrs by Ez-cytox assay; format: functional, cell-based; settings: MDA-MB-436, 72 h
# [4] = Stability in rat plasma assessed as parent compound remaining at 1 mM measured after 1 hr by LC-MS/MS analysis; format: ADME, cell-free; settings: read-out: Stability
# [5] = Stability in human plasma assessed as parent compound remaining at 1 mM measured after 0.25 hrs by LC-MS/MS analysis; format: ADME, cell-free; settings: read-out: Stability
# [6] = biological target: DNA topoisomerase 2-alpha (Homo sapiens) (UniProt P11388); assay: Poison activity at topoisomerase-2 alpha in human T47D cells assessed as stabilization of enzyme-DNA cleavage complex by measuring reduction in topo-2alpha level at 50 uM measured after 2 hrs in presence of etoposide by Western blot analysis; format: cell-based
# DNA topoisomerase 2-alpha (Homo sapiens), sequence (P11388 whole entry): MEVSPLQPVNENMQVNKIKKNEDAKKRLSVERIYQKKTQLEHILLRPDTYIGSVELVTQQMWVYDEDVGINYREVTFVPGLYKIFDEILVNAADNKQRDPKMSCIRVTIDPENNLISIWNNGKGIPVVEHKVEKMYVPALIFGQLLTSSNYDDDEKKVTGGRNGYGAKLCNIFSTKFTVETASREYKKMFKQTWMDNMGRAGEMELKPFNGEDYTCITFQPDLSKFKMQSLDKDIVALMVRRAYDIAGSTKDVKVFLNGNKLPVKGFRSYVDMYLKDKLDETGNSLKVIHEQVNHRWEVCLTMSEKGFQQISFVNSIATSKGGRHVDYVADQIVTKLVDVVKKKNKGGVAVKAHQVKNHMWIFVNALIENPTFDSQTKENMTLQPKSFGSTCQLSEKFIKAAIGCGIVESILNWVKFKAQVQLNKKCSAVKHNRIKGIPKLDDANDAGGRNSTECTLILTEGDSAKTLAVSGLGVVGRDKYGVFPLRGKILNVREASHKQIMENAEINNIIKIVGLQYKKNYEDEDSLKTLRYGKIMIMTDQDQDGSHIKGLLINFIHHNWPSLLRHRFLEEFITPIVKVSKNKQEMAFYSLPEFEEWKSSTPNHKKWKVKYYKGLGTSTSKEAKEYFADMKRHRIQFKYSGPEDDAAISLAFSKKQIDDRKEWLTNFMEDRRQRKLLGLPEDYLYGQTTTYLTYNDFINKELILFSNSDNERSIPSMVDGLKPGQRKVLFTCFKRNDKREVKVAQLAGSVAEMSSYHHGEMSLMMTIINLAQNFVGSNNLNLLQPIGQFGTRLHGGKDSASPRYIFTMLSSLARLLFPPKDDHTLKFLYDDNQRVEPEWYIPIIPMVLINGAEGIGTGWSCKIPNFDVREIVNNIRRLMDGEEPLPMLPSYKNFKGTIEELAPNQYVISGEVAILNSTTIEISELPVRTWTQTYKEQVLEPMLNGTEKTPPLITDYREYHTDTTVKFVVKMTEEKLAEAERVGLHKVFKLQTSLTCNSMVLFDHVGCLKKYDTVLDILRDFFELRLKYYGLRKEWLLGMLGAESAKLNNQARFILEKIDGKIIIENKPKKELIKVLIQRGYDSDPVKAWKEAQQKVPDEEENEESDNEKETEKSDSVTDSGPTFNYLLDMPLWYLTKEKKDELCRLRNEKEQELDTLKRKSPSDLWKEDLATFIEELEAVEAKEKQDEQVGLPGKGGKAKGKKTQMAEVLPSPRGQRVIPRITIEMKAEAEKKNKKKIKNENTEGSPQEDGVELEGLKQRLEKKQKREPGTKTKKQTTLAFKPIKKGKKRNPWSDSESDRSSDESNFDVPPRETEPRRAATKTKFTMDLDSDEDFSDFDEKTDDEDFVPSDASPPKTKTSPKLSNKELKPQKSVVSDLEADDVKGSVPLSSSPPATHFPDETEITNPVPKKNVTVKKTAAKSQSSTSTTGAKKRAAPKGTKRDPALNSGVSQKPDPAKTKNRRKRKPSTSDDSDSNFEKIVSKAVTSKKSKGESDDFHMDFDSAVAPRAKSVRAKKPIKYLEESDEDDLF
# [7] = Toxicity in female ICR mouse assessed as change in body weight at 50 to 100 mg/kg, iv administered as single dose measured daily for 7 days; format: organism-based; settings: in vivo, 168 h
# HCT-15 = assay: Antiproliferative activity against human HCT15 cells measured after 72 hrs by EZ-Cytox assay; format: functional, cell-based; settings: HCT-15, 72 h
# [8] = Toxicity in male ICR mouse assessed as mortality at 50 mg/kg, iv administered as single dose measured daily for 7 days (reference value: 0%); format: organism-based; settings: in vivo
# [9] = Protein binding in human plasma assessed as unbound fraction at 1 mM measured immediately by LC-MS/MS analysis; format: ADME, cell-free
smiles,measurement,setting,value
Oc1ccc(-c2cc(-c3ccccc3Cl)nc3c2Cc2c(O)cccc2-3)cc1,fraction unbound at 0 h,[1],1
same,IC50,T47D,2.67 nM
same,remaining at 0 h,[2],100%
same,inhibition,[3],0%
same,IC50,MDA-MB-436,2640 nM
same,remaining at 1 h,[4],111%
same,remaining at 0.25 h,[5],98.7%
same,Activity,[6],Active
same,Activity,[7],Non-Toxic
same,IC50,HCT-15,14 nM
same,mortality at 168 h,[8],0%
same,fraction unbound at 0 h,[9],1
